Measurements from patent US20260159523A1, “PESTICIDALLY ACTIVE HETEROCYCLIC DERIVATIVES WITH SULFUR CONTAINING SUBSTITUENTS” (SYNGENTA CROP PROTECTION AG, priority 2022, published 2026).

Legend:
Format in all cases: in vivo
Diabrotica balteata = assay: Activity against Diabrotica balteata (corn root worm), maize sprouts; conditions: 96 h, application rate 200 ppm, L2 larvae, 4 days after infestation, read-out: effect in at least one of the two categories (mortality or growth inhibition)
Procedure: Activity Against Diabrotica balteata (Corn Root Worm)
Maize sprouts placed onto an agar layer in 24-well microtiter plates were treated with aqueous test solutions prepared from 10'000 ppm DMSO stock solutions by spraying. After drying, the plates were infested with L2 larvae (6 to 10 per well). The samples were assessed for mortality and growth inhibition in comparison to untreated samples 4 days after infestation.

Spodoptera littoralis = assay: Activity against Spodoptera littoralis (Egyptian cotton leaf worm), cotton leaf discs; conditions: foliar, 72 h, application rate 200 ppm, L1 larvae, 3 days after infestation
Procedure: Activity Against Spodoptera littoralis (Egyptian Cotton Leaf Worm)
Cotton leaf discs were placed onto agar in 24-well microtiter plates and sprayed with aqueous test solutions prepared from 10'000 ppm DMSO stock solutions. After drying the leaf discs were infested with five L1 larvae. The samples were assessed for mortality, anti-feeding effect, and growth inhibition in comparison to untreated samples 3 days after infestation. Control of Spodoptera littoralis by a test sample is given when at least one of the categories mortality, anti-feedant effect, and growth inhibition is higher than the untreated sample.

Myzus persicae [1] = assay: Activity against Myzus persicae (green peach aphid), feeding/contact activity; conditions: foliar, 144 h, application rate 200 ppm, sunflower leaf discs, mixed ages, 6 days after infestation
Procedure: Activity Against Myzus persicae (Green Peach Aphid) Feeding/Contact Activity
Sunflower leaf discs were placed onto agar in a 24-well microtiter plate and sprayed with aqueous test solutions prepared from 10'000 ppm DMSO stock solutions. After drying, the leaf discs were infested with an aphid population of mixed ages. The samples were assessed for mortality 6 days after infestation.

Myzus persicae [2] = assay: Activity against Myzus persicae (green peach aphid), systemic activity; conditions: 144 h, test rate 24 ppm, pea seedling roots in test solution, 6 days
Procedure: Activity Against Myzus persicae (Green Peach Aphid) Systemic Activity
Roots of pea seedlings infested with an aphid population of mixed ages were placed directly into aqueous test solutions prepared from 10'000 DMSO stock solutions. The samples were assessed for mortality 6 days after placing seedlings into test solutions.

Plutella xylostella = assay: Activity against Plutella xylostella (diamond back moth), artificial diet; conditions: 192 h, application rate 200 ppm, eggs, 8 days after infestation, read-out: effect in at least one of the two categories (mortality or growth inhibition)
Procedure: Activity Against Plutella xylostella (Diamond Back Moth)
24-well microtiter plates with artificial diet were treated with aqueous test solutions prepared from 10'000 ppm DMSO stock solutions by pipetting. After drying, Plutella eggs were pipetted through a plastic stencil onto a gel blotting paper and the plate was closed with it. The samples were assessed for mortality and growth inhibition in comparison to untreated samples 8 days after infestation.

Euschistus heros = assay: Activity against Euschistus heros (neotropical brown stink bug), soybean leaves; conditions: 120 h, application rate 200 ppm, N2 nymphs, 5 days after infestation, read-out: effect in at least one of the two categories (mortality or growth inhibition)
Procedure: Activity Against Euschistus heros (Neotropical Brown Stink Bug)
Soybean leaves on agar in 24-well microtiter plates were sprayed with aqueous test solutions prepared from 10'000 ppm DMSO stock solutions. After drying the leaves were infested with N2 nymphs. The samples were assessed for mortality and growth inhibition in comparison to untreated samples 5 days after infestation.

Chilo suppressalis = assay: Activity against Chilo suppressalis (striped rice stemborer), artificial diet; conditions: 144 h, application rate 200 ppm, L2 larvae, 6 days after infestation
Procedure: Activity Against Chilo suppressalis (Striped Rice Stemborer)
24-well microtiter plates with artificial diet were treated with aqueous test solutions prepared from 10'000 ppm DMSO stock solutions by pipetting. After drying, the plates were infested with L2 larvae (6-8 per well). The samples were assessed for mortality, anti-feeding effect, and growth inhibition in comparison to untreated samples 6 days after infestation. Control of Chilo suppressalis by a test sample is given when at least one of the categories mortality, anti-feedant effect, and growth inhibition is higher than the untreated sample.

CCS(=O)(=O)c1cc(C2(C#N)CC2)cnc1-c1coc2ccc(-c3cc(F)cc(F)c3)cc2c1=O [P.7, 1-[6-[6-(3,5-difluorophenyl)-4-oxo-chromen-3-yl]-5-ethylsulfonyl-3-pyridyl]-cyclopropanecarbonitrile]
≥ 80%: percent effect (mortality or growth inhibition) at 200 ppm (Diabrotica balteata) | percent control (mortality, anti-feedant effect or growth inhibition) at 200 ppm (Spodoptera littoralis) | mortality at 200 ppm (Myzus persicae [1])

CCS(=O)(=O)c1cc(C2(C#N)CC2)cnc1-c1coc2ccc(C#N)cc2c1=O [P.4, 3-[5-(1-cyanocyclopropyl)-3-ethylsulfonyl-2-pyridyl]-4-oxo-chromene-6-carbonitrile]
≥ 80%: mortality at 24 ppm (Myzus persicae [2]) | percent effect (mortality or growth inhibition) at 200 ppm (Plutella xylostella)

CCS(=O)(=O)c1cc(C2(C#N)CC2)cnc1-c1coc2ccc(I)cc2c1=O [P.6, 1-[5-ethylsulfonyl-6-(6-iodo-4-oxo-chromen-3-yl)-3-pyridyl]cyclo-propanecarbonitrile]
≥ 80%: percent effect (mortality or growth inhibition) at 200 ppm (Diabrotica balteata) | percent effect (mortality or growth inhibition) at 200 ppm (Euschistus heros) | percent effect (mortality or growth inhibition) at 200 ppm (Plutella xylostella) | percent control (mortality, anti-feedant effect or growth inhibition) at 200 ppm (Spodoptera littoralis) | mortality at 200 ppm (Myzus persicae [1]) | percent control (mortality, anti-feedant effect or growth inhibition) at 200 ppm (Chilo suppressalis)

CCS(=O)(=O)c1cc(C2(C#N)CC2)cnc1-c1coc2ccc(-c3ccc(F)cc3)cc2c1=O [P.8, 1-[5-ethylsulfonyl-6-[6-(4-fluorophenyl)-4-oxo-chromen-3-yl]-3-pyridyl]-cyclopropanecarbonitrile]
≥ 80%: percent effect (mortality or growth inhibition) at 200 ppm (Plutella xylostella) | percent control (mortality, anti-feedant effect or growth inhibition) at 200 ppm (Chilo suppressalis)

CCS(=O)(=O)c1cc(C2(C#N)CC2)cnc1-c1coc2ccc(F)cc2c1=O [P.2, 1-[5-ethylsulfonyl-6-(6-fluoro-4-oxo-chromen-3-yl)-3-pyridyl]cyclo-propanecarbonitrile]
≥ 80%: mortality at 24 ppm (Myzus persicae [2]) | percent effect (mortality or growth inhibition) at 200 ppm (Diabrotica balteata) | percent effect (mortality or growth inhibition) at 200 ppm (Euschistus heros) | percent effect (mortality or growth inhibition) at 200 ppm (Plutella xylostella) | percent control (mortality, anti-feedant effect or growth inhibition) at 200 ppm (Spodoptera littoralis) | percent control (mortality, anti-feedant effect or growth inhibition) at 200 ppm (Chilo suppressalis)

CCS(=O)(=O)c1cc(C2(C#N)CC2)cnc1-c1coc2ccc(Cl)cc2c1=O [P.3, 1-[6-(6-chloro-4-oxo-chromen-3-yl)-5-ethylsulfonyl-3-pyridyl]-cyclopropanecarbonitrile]
≥ 80%: percent effect (mortality or growth inhibition) at 200 ppm (Diabrotica balteata) | percent effect (mortality or growth inhibition) at 200 ppm (Euschistus heros) | percent effect (mortality or growth inhibition) at 200 ppm (Plutella xylostella) | percent control (mortality, anti-feedant effect or growth inhibition) at 200 ppm (Spodoptera littoralis) | mortality at 200 ppm (Myzus persicae [1]) | percent control (mortality, anti-feedant effect or growth inhibition) at 200 ppm (Chilo suppressalis)

CCS(=O)(=O)c1cc(C2(C#N)CC2)cnc1-c1coc2ccc(Br)cc2c1=O [P.5, 1-[6-(6-bromo-4-oxo-chromen-3-yl)-5-ethylsulfonyl-3-pyridyl]-cyclopropanecarbonitrile]
≥ 80%: percent effect (mortality or growth inhibition) at 200 ppm (Diabrotica balteata) | percent effect (mortality or growth inhibition) at 200 ppm (Euschistus heros) | percent effect (mortality or growth inhibition) at 200 ppm (Plutella xylostella) | percent control (mortality, anti-feedant effect or growth inhibition) at 200 ppm (Spodoptera littoralis) | percent control (mortality, anti-feedant effect or growth inhibition) at 200 ppm (Chilo suppressalis)

CCS(=O)(=O)c1cc(C2(C#N)CC2)cnc1-c1coc2ccc(C(F)(F)F)cc2c1=O [P.1, 1-[5-ethylsulfonyl-6-[4-oxo-6-(trifluoromethyl)chromen-3-yl]-3-pyridyl]cyclopropanecarbonitrile]
≥ 80%: mortality at 24 ppm (Myzus persicae [2]) | percent effect (mortality or growth inhibition) at 200 ppm (Diabrotica balteata) | percent effect (mortality or growth inhibition) at 200 ppm (Euschistus heros) | percent effect (mortality or growth inhibition) at 200 ppm (Plutella xylostella) | percent control (mortality, anti-feedant effect or growth inhibition) at 200 ppm (Spodoptera littoralis) | mortality at 200 ppm (Myzus persicae [1]) | percent control (mortality, anti-feedant effect or growth inhibition) at 200 ppm (Chilo suppressalis)
